Measured values published in US11786495B2 (priority 2021, dated 2023).
Counter-ions that a name gives are not always drawn.

Legend:
[1] = TEC vs. Lipinski criteria for CNS drug like properties; details: four criteria: MW, LogP, HBD, HBA
[2] = 70 kg man, estimated, extrapolated from animal models; cited from earlier work
beta amyloid protein = details: varying concentrations of sodium citrate; thioflavin T positive aggregates; cited from earlier work
[3] = model of spinal stenosis; cited from earlier work

## CCOC(=O)CC(O)(CC(=O)OCC)C(=O)OCC [TEC, Triethyl citrate]
[1]
  Lipinski criteria met for a CNS drug: Three out of four
[2]
  LD50: ~500 cc

## O=C([O-])CC(O)(CC(=O)[O-])C(=O)[O-].[Na+].[Na+].[Na+] [sodium citrate]
Beta amyloid protein
  Dissolution of calcium-produced beta amyloid aggregates: aggregates dissolve in response to citrate concentration

## O=C(O)CC(O)(CC(=O)O)C(=O)O [Citrate]
[3]
  Bone calcium: decrease bone calcium
